Where two headings read alike, the source gives them in different places.
Assays:
Fusarium proliferatum = assay: Example I: production of fumonisin FB1 by Fusarium proliferatum (microtitre plates); format: cell-based; conditions: 120 h
Leptosphaeria nodorum = assay: Example Q: in vivo test on Leptosphaeria nodorum (glume blotch in wheat/protective); conditions: Parastagonospora nodorum, 192 h, wheat, protective, assessment 8 days after inoculation, read-out: % Wirkungsgrad
Experimental: (§1) Solvent: 49 parts by weight N,N-dimethylacetamide Emulsifier: 1 part by weight alkylaryl polyglycol ethers For the preparation of a suitable active substance preparation, 1 part by weight of active substance is mixed with the stated quantities of solvent and emulsifier and the concentrate is diluted to the desired concentration with water. For the testing for protective activity, young plants are sprayed with the active substance preparation at the stated application dosage. After drying of the spray coating, the plants are sprayed with spores with a spore suspension of Leptosphaeria nodorum. […] 8 days after the inoculation, the assessment takes place.

Sphaerotheca fuliginea [1] = assay: Example L: in vivo test on Sphaerotheca fuliginea (powdery mildew on cucumber/protective); conditions: Podosphaera fuliginea, 168 h, cucumber, protective, assessment 7 days after inoculation, read-out: % Wirkungsgrad
Outline: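 Young cucumber plants sprayed at stated dosage with compound in DMF/alkylaryl polyglycol ether emulsifier diluted in water; inoculated with S. fuliginea spores one day later. Kept in greenhouse at 70% relative humidity, 23° C; protective activity assessed 7 days after inoculation.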

Venturia inaequalis = assay: Example O: in vivo test on Venturia inaequalis (apple scab/protective); conditions: 240 h, protective, assessment 10 days after inoculation, read-out: % Wirkungsgrad
Outline: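 Protective test: active substance mixed with solvent and alkylaryl polyglycol ether emulsifier, diluted with water, and sprayed on young plants at the stated dosage before Venturia inaequalis inoculation. Scab assessed 10 days after inoculation.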

Rhynchosporium secalis = assay: Example S: in vivo test on Rhynchosporium secalis (leaf scald in barley/protective); conditions: 336 h, barley, protective, 1000 ppm active substance, assessed 14 days after inoculation, read-out: % Wirkungsgrad (activity level)
Experimental: as §1, with “Rhynchosporium secalis.” for “Leptosphaeria nodorum.”, “14” for “8”

Botrytis cinerea [2] = assay: Example P: in vivo test on Botrytis cinerea (gray mould on bean/protective); conditions: 48 h, bean, protective, 250 ppm active substance, assessed 2 days after inoculation, read-out: % Wirkungsgrad (activity level)
Outline: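 Protective test: young bean plants sprayed with the active substance preparation (emulsifier-based concentrate diluted in water) at the stated dosage. Once dry, each leaf received 2 agar pieces bearing Botrytis cinerea. Infection blotch size assessed 2 days after inoculation.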

Alternaria solani = assay: Example M: in vivo test on Alternaria solani (leaf blotch disease/tomato/protective); conditions: 168 h, tomato, protective, 500 ppm active substance, assessed 7 days after inoculation, read-out: % Wirkungsgrad (activity level)
Outline: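 Protective test: young tomato plants sprayed with active substance (in DMF with alkylaryl polyglycol ether emulsifier, diluted in water) at the stated dosage, then inoculated with Alternaria solani. Disease assessed 7 days after inoculation.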

[3] = system: Fusarium nivale (var. majus); assay: whole plant or invertebrate; format: in vivo; conditions: Microdochium nivale, in Triticum aestivum, 120 h, read-out: % Wirkungsgrad (activity level)
Fusarium graminearum [4] = assay: whole plant or invertebrate; format: in vivo; conditions: in Hordeum vulgare, 120 h, read-out: % Wirkungsgrad (activity level)
Septoria tritici = assay: Example R: in vivo test on Septoria tritici (leaf blotch in wheat/protective); conditions: Zymoseptoria tritici, 504 h, wheat, protective, 1000 ppm active substance, assessed 21 days after inoculation, read-out: % Wirkungsgrad (activity level)
Experimental: as §1, with “with” for “with spores with”, “Septoria tritici.” for “Leptosphaeria nodorum.”, “21” for “8”

[5] = system: Mycosphaerella graminicola; assay: Example G: in vivo test on Mycosphaerella graminicola (wheat leaf blotch disease); conditions: Zymoseptoria tritici, wheat plants sprayed 24 hours before inoculation, scored after 21 to 28 days, read-out: % Wirkungsgrad
Experimental: In Vivo Test on Mycosphaerella Graminicola (Wheat Leaf Blotch Disease) An aqueous suspension of the active substance was prepared by homogenization of a mixture of acetone/Tween/dimethyl sulphoxide and subsequent dilution with water to the desired concentration. Wheat plants (variety: Scipion) are sown in cultivation dishes on a peat-pozzolanic earth substrate (50/50) at 12° C. and sprayed at the first-leaf stage (10 cm size) with the aqueous suspension described above. As a control, plants are sprayed with an aqueous solution with no active substance. After 24 hours the plants are inoculated by spraying with an aqueous suspension of Mycosphaerella graminicola spores (500,000 spores per ml). The spores are derived from a 7 day-old culture. […] After 21 to 28 days they are scored in comparison with the control plants.

Botrytis cinerea [6] = assay: Example B: in vivo test on Botrytis cinerea (grey mould on cucumbers); conditions: cucumber plants sprayed 24 hours before inoculation, scored after 5-7 days, read-out: % Wirkungsgrad
Experimental: In Vivo Test on Botrytis Cinerea (Grey Mould on Cucumbers) An aqueous suspension of the active substance was prepared by homogenization of a mixture of acetone/Tween/dimethyl sulphoxide and subsequent dilution with water to the desired concentration. Cucumber plants (variety: Vert petit de Paris) are sown in cultivation dishes on a peat-pozzolanic earth substrate (50/50) at 18-20° C. and sprayed at the cotyledon stage Z11 with the aqueous suspension described above. As a control, plants are sprayed with an aqueous solution with no active substance. […] The spores are derived from a 15 day-old culture which are suspended in the following nutrient solution: • 20 g/l gelatine • 50 g/l D-fructose • 2 g/l NH4NO3 • 1 g/l KH2PO4 The inoculated cucumber plants are kept for 5-7 days in a climatic chamber at […] After 5-7 days they are scored in comparison with the control plants.

Sphaerotheca fuliginea [7] = assay: Example D: in vivo test on Sphaerotheca fuliginea (powdery mildew on cucumber); conditions: Podosphaera fuliginea, 288 h, cucumber plants sprayed 24 hours before inoculation, scored after 12 days, read-out: % Wirkungsgrad
Experimental: In Vivo Test on Sphaerotheca Fuliginea (Powdery Mildew on Cucumber) An aqueous suspension of the active substance was prepared by homogenization of a mixture of acetone/Tween/dimethyl sulphoxide and subsequent dilution with water to the desired concentration. Cucumber plants (variety: Vert petit de Paris) are sown in cultivation dishes on a peat-pozzolanic earth substrate (50/50) at 20/23° C. and at the cotyledon stage Z10 sprayed with the aqueous suspension described above. As a control, plants are sprayed with an aqueous solution with no active substance. After 24 hours the plants are inoculated by spraying with an aqueous suspension of Sphaerotheca fuliginea spores (100,000 spores per ml). The spores are derived from a contaminated plant. The inoculated cucumber plants are incubated at ca. 20/25° C. at a relative atmospheric humidity of 60/70%. After 12 days they are scored in comparison with the control plants.

Fusarium graminearum [8] = assay: microbe, parasite or virus in culture; format: cell-based
Plasmopara viticola = assay: Example N: in vivo test on Plasmopara viticola (downy mildew, vine/protective); conditions: 144 h, vine, protective, assessment 6 days after inoculation, read-out: % Wirkungsgrad
Experimental: Emulsifier: 1 part by weight alkylaryl polyglycol ethers For the preparation of a suitable active substance preparation, 1 part by weight of active substance is mixed with the stated quantities of solvent and emulsifier and the concentrate is diluted to the desired concentration with water. For the testing for protective activity, young plants are sprayed with the active substance preparation at the stated application dosage. […] The plants are then moistened and placed in an incubation cabin for 1 day. 6 days after the inoculation, the assessment takes place.

[9] = Fusarium proliferatum growth, OD 620, 5 days, read-out: % Inhibition des Pilzwachstums bei 50 μM
[10] = Fusarium proliferatum, 5 days at 20° C., HPLC-MS/MS, read-out: % Inhibition der FB1 produktion bei 50 μM
[11] = LogPA (logP of the stated pure compound or, in a mixture, of the main isomer, 1-substituted 3-aryl-1H-pyrazole)

Compound | inhibition at 50 µM (Fusarium proliferatum; [9]) | inhibition at 50 µM (Fusarium proliferatum; [10]) | pest or weed control at 1000 ppm (Leptosphaeria nodorum) | pest or weed control at 500 ppm (Sphaerotheca fuliginea [1]) | pest or weed control at 100 ppm (Venturia inaequalis) | pest or weed control at 1000 ppm (Rhynchosporium secalis) | pest or weed control at 250 ppm (Botrytis cinerea [2]) | chromatographic logP (physchem; LogPA) | pest or weed control at 500 ppm (Alternaria solani) | pest or weed control at 1000 ppm [3] | pest or weed control at 1000 ppm (Fusarium graminearum [4]) | pest or weed control at 1000 ppm (Septoria tritici) | pest or weed control at 500 ppm [5] | chromatographic logP (physchem; [11]) | pest or weed control at 500 ppm (Botrytis cinerea [6]) | pest or weed control at 500 ppm (Sphaerotheca fuliginea [7]) | inhibition at 50 µM (Fusarium graminearum [8]; 72 h, read-out: % Inhibition des Pilzwachstums bei 50 μM) | inhibition at 50 µM (Fusarium graminearum [8]; 168 h, read-out: % Inhibition der DON/AcDON produktion bei 50 μM) | pest or weed control at 100 ppm (Plasmopara viticola)
CCC(=O)Nc1cc(-c2cn(CC(F)F)nc2-c2ccc(F)cc2)ccn1 [Compound 215] | 94% | 100% | 71% | 100% | 96% | 90% | 98% | 1.99 | 94% | 100% | 100% | 94% | – | – | – | – | – | – | –
Fc1cccc(F)c1-c1c(-c2ccncc2)cnn1C1CCCC1 [Compound 17] | – | – | – | – | – | – | – | – | – | – | – | – | 88% | 1.74 | 83% | 80% | – | – | –
CC(C)Cn1cc(-c2ccnc(N)n2)c(-c2ccc(F)cc2)n1 [Compound 184] | – | – | 88% | 95% | 92% | 71% | 100% | 1.81 | 95% | 100% | 100% | 100% | – | – | – | – | – | – | –
CC(C)n1cc(-c2ccncc2)c(-c2c(F)cccc2F)n1 [Compound 14] | – | – | – | – | – | – | – | – | – | – | – | – | 88% | 1.4 | 100% | 80% | – | – | –
CC(C)C(=O)Nc1cc(-c2cn(CC3CC3)nc2-c2ccc(F)cc2)ccn1 [Compound 225] | 93% | 100% | 86% | 100% | 96% | 90% | 96% | 2.54 | 95% | 100% | 100% | 100% | – | – | – | – | 92% | 89% | 90%

Source: patent publication US20110183978A1, “Phenylpyri(mi)dinylazoles” (Bayer CropScience AG, priority 2009, published 2011)
